What was measured:
[1] = tested on: eye muscle (lateral rectus muscle); type: in vivo, human
Text: In one embodiment, an eye muscle is selected for treatment. For an eye that is esotropic (turned inward or crossed), the physician will want to strengthen the lateral rectus muscle, which acts to pull the eye outward into better alignment. The surface of the eye is anesthetized with eye drops. A syringe is filled with up to 5.0 cc of bupivacaine, enough to fill the muscle and reach all the muscle fibers. The concentration of the bupivacaine solution is from 0.5% to 3.0%. The volume and concentration are varied depending on the amount of strengthening effect required. The syringe is attached to an injection needle insulated on its shaft. Therefore, the muscle electrical activity is picked up only with the exposed tip of the needle. The needle is attached to a wire leading to an electromyographic (EMG) recorder. A second wire leads to a ground attached to the skin of the patient's body. The eye is moved to a position at which the lateral rectus muscle to be treated is activated electrically as well as physically contracted. As the tip of the needle approaches the muscle area, the electrical activity is picked up and amplified by the EMG recorder as sound. The sound gets louder as the needle tip gets closer to and finally within the muscle. The needle is advanced behind the eye to the end of the muscle, about 3 cm, keeping the needle within the muscle, guided by the amplitude of the recorded sound. This is important, as the drug will anesthetize the nerves and the muscle with injection of the first few drops, thereafter leaving no guide as to position of the needle. The drug solution is injected starting at this deepest point, with continued injection of solution as the needle is withdrawn. In order to get the maximum effect, all the fibers of the muscle must be exposed to the drug. A smaller volume and concentration are applied when a sub-maximum effect is wanted. […] (Scott, A. B., Alexander, D. E., Miller, J. M., 2007, Bupivacaine injection of eye muscles to treat strabismus. Br J. Opthalmol. 91 (2), 146-148) In one case of eye muscle injection, I marked the solution with a contrast agent to show the exact location of the injected drug. […] All the same, the muscle became larger and stronger. This teaches that exposure of the fibers can also be effected by injecting around the muscle to bathe it. All the muscle fibers must be exposed to the drug to provide the maximal effect. Reducing exposure of the muscle fibers to the drug by reducing the volume of solution injected or by using a lower concentration of drug can be expected to provide a lesser effect. […]

skeletal muscle fibers = conditions: in vivo; cited from earlier work
[2] = tested on: extensor digitorum longus muscle; conditions: rat hind limb, sufficient concentration and volume; cited from earlier work

Compound: CCCCN1CCCCC1C(=O)Nc1c(C)cccc1C (stereo not drawn) [bupivacaine]
- duration of muscle inactivity from the anesthetic effect ([1]; eye muscle injection, up to 5.0 cc, 0.5% to 3.0%): inactive for a day
- eye position and movement after recovery ([1]; eye muscle injection, as the muscle enlarges and strengthens): typically improve
- recovery from the myotoxic effect ([1]; in vivo): gradually recovers from the myotoxic effect of the drug over the next week
- effect on muscle size and strength ([1]; muscle fibers exposed to adequate concentration and volume of drug): enlarge and become stronger
- toxicity to muscle fibers (skeletal muscle fibers): irreversible breakdown of the muscle fibers
- muscle size after injection [2]: enlargement of the muscle beyond its original size

From US7632848B1, “Medical treatment of muscles by exposure to anesthetic drugs” (priority 2007, dated 2009)
